The values below come from patent publication US11660293B2, “Substituted 2-azabicyclo[3.1.1]heptane and 2-azabicyclo[3.2.1]octane derivatives as orexin receptor antagonists” (Chronos Therapeutics Limited, priority 2017, dated 2023).

For experiment [1], the target named is T1, human Orexin type 1 receptors (Homo sapiens (Human), UniProt O43613). As to the kind of experiment: Intracellular calcium measurement (FLIPR), antagonism of Orexin-A at EC80 in CHO-hOX1 cells.
Experiment [2] deals with T2, human Orexin type 2 receptors (Homo sapiens (Human), UniProt O43614). As to the kind of experiment: Intracellular calcium measurement (FLIPR), antagonism of Orexin-A at EC80 in CHO-hOX2 cells.
The target of experiment [3] is T1, human Orexin type 1 receptors. As to the kind of experiment: Scintillation Proximity Assay (SPA) binding assay, [3H]SB-674042 displacement, CHO-hOX1 membranes.
Experiment [4] deals with T2, human Orexin type 2 receptors. Description: Scintillation Proximity Assay (SPA) binding assay, [3H]EMPA displacement, HEK-hOX2 membranes.

T1 sequence (O43613 whole entry): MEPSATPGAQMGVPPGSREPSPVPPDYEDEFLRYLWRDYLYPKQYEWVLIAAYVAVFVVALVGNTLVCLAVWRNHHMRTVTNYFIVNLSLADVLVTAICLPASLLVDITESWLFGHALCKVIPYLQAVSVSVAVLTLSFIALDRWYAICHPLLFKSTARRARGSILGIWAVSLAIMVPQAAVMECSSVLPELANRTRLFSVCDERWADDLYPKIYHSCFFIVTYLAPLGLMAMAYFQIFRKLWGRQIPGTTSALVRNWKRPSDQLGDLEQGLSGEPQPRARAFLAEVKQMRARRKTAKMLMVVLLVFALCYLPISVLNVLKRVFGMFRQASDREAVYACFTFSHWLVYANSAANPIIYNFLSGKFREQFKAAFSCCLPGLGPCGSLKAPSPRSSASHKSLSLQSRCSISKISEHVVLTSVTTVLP
T2 sequence (O43614 whole entry): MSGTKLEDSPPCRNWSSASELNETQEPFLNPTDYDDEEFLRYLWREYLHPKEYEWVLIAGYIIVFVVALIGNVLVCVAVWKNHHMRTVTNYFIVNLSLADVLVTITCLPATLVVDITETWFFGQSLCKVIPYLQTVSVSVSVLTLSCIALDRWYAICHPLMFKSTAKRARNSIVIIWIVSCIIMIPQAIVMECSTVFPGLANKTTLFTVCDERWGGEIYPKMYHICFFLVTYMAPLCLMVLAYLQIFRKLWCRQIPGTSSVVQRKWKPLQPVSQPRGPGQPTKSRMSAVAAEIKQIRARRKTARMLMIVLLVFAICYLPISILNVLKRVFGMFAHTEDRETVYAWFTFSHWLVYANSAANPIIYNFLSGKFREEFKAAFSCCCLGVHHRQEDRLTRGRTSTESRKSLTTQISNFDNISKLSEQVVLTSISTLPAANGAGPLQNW

For `Cc1nc(C(=O)N2C3CC(C3)C(C)C2COc2ccc(F)cc2)c(-c2ccccc2)s1` (mixture of isomers) [Example 64, CIS/TRANS 3-(4-fluorophenoxymethyl)-4-methyl-2-(2-methyl-5-phenyl-1,3-thiazole-4-carbonyl)-2-azabicyclo[3.1.1]heptane], the results for the Ki in experiment [1] and in experiment [2] were 3.16 nM and 282 nM, respectively.
For the molecule `Cc1ccc(-c2nccs2)c(C(=O)N2C(COc3ccc(Cl)cc3)CC3CC2C3)c1` (stereo not shown) [Example 20], the Ki in experiment [1] was 22.9 nM.
Consider `Cc1ccc(-n2nccn2)c(C(=O)N2C3CC(C3)[C@H](C)C2COc2ccc(F)cc2)n1` (stereo partly drawn) [Example 103, trans-3-[(4-fluorophenoxy)methyl]-4-methyl-2-[6-methyl-3-(2H-1,2,3-triazol-2-yl)pyridine-2-carbonyl]-2-azabicyclo[3.1.1]heptane], for which the “OX1 pKi (SPA binding)” value in experiment [3] (Table 1, [3H]SB-674042 2 nM) came out at 8. Besides, in experiment [4] (Table 1, [3H]EMPA 2 nM), the “OX2 pKi (SPA binding)” value stood at 5.6.
Turning to `Cc1ccc(-n2nccn2)c(C(=O)N2C3CC(C3)[C@H](C)C2COc2ccc(F)cc2)c1` (stereo partly drawn) [Example 109, trans-3-[(4-fluorophenoxy)methyl]-4-methyl-2-[5-methyl-2-(2H-1,2,3-triazol-2-yl)benzoyl]-2-azabicyclo[3.1.1]heptane], in experiment [3] (Table 1, [3H]SB-674042 2 nM), the “OX1 pKi (SPA binding)” value is 7.51. In addition, in experiment [4] (Table 1, [3H]EMPA 2 nM), the “OX2 pKi (SPA binding)” value is 5.89.
Consider `Cc1ccc(-n2nccn2)c(C(=O)N2C3CC(C3)[C@H](C)C2COc2nc3ccc(F)cc3s2)n1` (stereo partly drawn) [Example 110, trans-6-fluoro-2-({4-methyl-2-[6-methyl-3-(2H-1,2,3-triazol-2-yl)pyridine-2-carbonyl]-2-azabicyclo[3.1.1]heptan-3-yl}methoxy)-1,3-benzothiazole], for which, in experiment [3] (Table 1, [3H]SB-674042 2 nM), the “OX1 pKi (SPA binding)” value came out at 7. Further, the “OX2 pKi (SPA binding)” value in experiment [4] (Table 1, [3H]EMPA 2 nM) came out at 6.06.
For `Cc1ccc(-n2nccn2)c(C(=O)N2C3CC(C3)[C@H](C)C2COc2ccc(Cl)cc2)n1` (stereo partly drawn) [Example 112, trans-3-[(4-chlorophenoxy)methyl]-4-methyl-2-[6-methyl-3-(2H-1,2,3-triazol-2-yl)pyridine-2-carbonyl]-2-azabicyclo[3.1.1]heptane], the “OX1 pKi (SPA binding)” value in experiment [3] (Table 1, [3H]SB-674042 2 nM) is listed as 7.83. For the same molecule, in experiment [4] (Table 1, [3H]EMPA 2 nM), the “OX2 pKi (SPA binding)” value worked out at 5.92.
With `Cc1nc(C(=O)N2C3CC(C3)[C@@H](C)C2COc2ccc(F)cc2)c(-n2nccn2)s1` (stereo partly drawn) [Example 140, cis-3-[(4-flurophenoxy)methyl]-4-methyl-2-[2-methyl-5-(2H-1,2,3-triazol-2-yl)-1,3-thiazole-4-carbonyl]-2-azabicyclo[3.1.1]heptane], the “OX1 pKi (SPA binding)” value in experiment [3] (Table 2, [3H]SB-674042 2 nM) turned out to be 7.49. In experiment [4] (Table 2, [3H]EMPA 2 nM), the “OX2 pKi (SPA binding)” value is 6.22.
Regarding `Cc1ccc(-c2sc(C)nc2C(=O)N2C3CC(C3)[C@@H](C)C2COc2ccc(F)cc2)cn1` (stereo partly drawn) [Example 143, cis-3-[(4-fluorophenoxy)methyl]-4-methyl-2-[2-methyl-5-(6-methylpyridin-3-yl)-1,3-thiazole-4-carbonyl]-2-azabicylco[3.1.1]heptane], in experiment [3] (Table 2, [3H]SB-674042 2 nM), the “OX1 pKi (SPA binding)” value was 7.14. The “OX2 pKi (SPA binding)” value in experiment [4] (Table 2, [3H]EMPA 2 nM) was 5.93.
As for `Cc1ccc(-n2nccn2)c(C(=O)N2C3CC(C3)[C@H](C)C2CNc2nc3ccc(F)cc3s2)n1` (stereo partly shown) [Example 147], in experiment [3] (Table 2, [3H]SB-674042 2 nM), the “OX1 pKi (SPA binding)” value is on record as 7.57. The “OX2 pKi (SPA binding)” value in experiment [4] (Table 2, [3H]EMPA 2 nM) was determined as 6.66.
In the same order, the values of `Cc1ccc(-n2nccn2)c(C(=O)N2C3CC(C3)[C@H](C)C2CNc2ncc3ccccc3n2)n1` (stereo partly drawn) [Example 149, trans-N-({4-methyl-2-[6-methyl-3-(2H-,2,3-triazol-2-yl)pyridine-2-carbonyl]-2-azabicyclo[3.1.1]heptan-3-yl}methyl)quinazolin-2-amine] are 6.82 and 5.72.
`Cc1ccc(-n2nccn2)c(C(=O)N2C3CC(C3)[C@H](C)C2CNc2nc3ccccc3s2)n1` (stereo partly drawn) [Example 150, trans-N-({4-methyl-2-[6-methyl-3-(2H-1,2,3-triazol-2-yl)pyridine-2-carbonyl]-2-azabicyclo[3.1.1]heptan-3-yl}methyl)-1,3-benzothiazol-2-amine]: the “OX1 pKi (SPA binding)” value in experiment [3] (Table 2, [3H]SB-674042 2 nM) turned out to be 7.5. The “OX2 pKi (SPA binding)” value in experiment [4] (Table 2, [3H]EMPA 2 nM) amounted to 6.14.
Turning to `Cc1ccc(-n2nccn2)c(C(=O)N2C3CC(C3)[C@@H](C)C2CNc2cc3ccccc3cn2)n1` (stereo partly drawn) [Example 151, cis-N-({4-methyl-2-[6-methyl-3-(2H-1,2,3-triazol-2-yl)pyridine-2-carbonyl]-2-azabicyclo[3.1.1]heptan-3-yl}methyl)isoquinolin-3-amine], in experiment [3] (Table 2, [3H]SB-674042 2 nM), the “OX1 pKi (SPA binding)” value came out at 7.59. For the same molecule, the “OX2 pKi (SPA binding)” value in experiment [4] (Table 2, [3H]EMPA 2 nM) was determined as 5.42.
Take `Cc1ccc(-n2nccn2)c(C(=O)N2C3CC(C3)[C@@H](C)C2CNc2ncc3ccccc3n2)n1` (stereo partly drawn) [Example 155, cis-N-({4-methyl-2-[6-methyl-3-(2H-1,2,3-triazol-2-yl)pyridin-2-carbonyl]-2-azabicyclo[3.1.1]heptan-3-yl}methyl)quinazolin-2-amine]: the “OX1 pKi (SPA binding)” value in experiment [3] (Table 2, [3H]SB-674042 2 nM) is 7.71. Also, in experiment [4] (Table 2, [3H]EMPA 2 nM), the “OX2 pKi (SPA binding)” value is listed as 5.49.
Take `C[C@@H]1C2CC(C2)N(C(=O)c2cc(C#N)ccc2-n2nccn2)C1CNc1nc2ccc(F)cc2s1` (stereo partly drawn) [Example 175, cis-3-(3-{[(6-fluoro-1,3-benzothiazol-2-yl)amino]methyl}-4-methyl-2-azabicyclo[3.1.1]heptane-2-carbonyl)-4-(2H-1,2,3-triazol-2-yl)benzonitrile]: the “OX1 pKi (SPA binding)” value in experiment [3] (Table 2, [3H]SB-674042 2 nM) is listed as 8.41. In experiment [4] (Table 2, [3H]EMPA 2 nM), the “OX2 pKi (SPA binding)” value is reported as 6.02.
`Cc1ccc(-n2nccn2)c(C(=O)N2C3CC(C3)[C@@H](C)C2CNc2nc3ccccc3s2)n1` (stereo partly drawn) [Example 178, cis-N-({4-methyl-2-[6-methyl-3-(2H-1,2,3-triazol-2-yl)pyridine-2-carbonyl]-2-azabicyclo[3.1.1]heptan-3-yl}methyl)-1,3-benzothiazol-2-amine]: in experiment [3] (Table 2, [3H]SB-674042 2 nM), the “OX1 pKi (SPA binding)” value turned out to be 8.52. Also, the “OX2 pKi (SPA binding)” value in experiment [4] (Table 2, [3H]EMPA 2 nM) is listed as 5.63.
In the same order, the values of `Cc1ccc(-n2nccn2)c(C(=O)N2C3CC(C3)[C@@H](C)C2CNc2nc3cccnc3s2)n1` (stereo partly drawn) [Example 184, cis-N-({4-methyl-2-[6-methyl-3-(2H-1,2,3-triaozl-2-yl)pyridine-2-carbonyl]-2-azabicyclo[3.1.1]heptan-3-yl}methyl)-[1,3]thiazolo[5,4-b]pyridin-2-amine] are 8.08 and 5.07.
For `Cc1ccc(-c2nccs2)c(C(=O)N2C3CC(C3)[C@@H](C)C2CNc2ccc(F)cc2)c1` (stereo partly drawn) [Example 202, cis-4-fluoro-N-({4-methyl-2-[5-methyl-2-(1,3-thiazol-2-yl)benzoyl]-2-azabicyclo[3.1.1]heptan-3-yl}methyl)aniline], the “OX1 pKi (SPA binding)” value in experiment [3] (Table 2, [3H]SB-674042 2 nM) turned out to be 6.71. Further, the “OX2 pKi (SPA binding)” value in experiment [4] (Table 2, [3H]EMPA 2 nM) worked out at 6.02.
Take `C[C@@H]1C2CC(C2)N(C(=O)c2cc(C#N)ccc2-n2nccn2)C1CNc1nc2cccnc2s1` (stereo partly drawn) [Example 231, cis-3-{4-methyl-3-[({[1,3]thiazolo[5,4-b]pyridin-2-yl}amino)methyl]-2-azabicyclo[3.1.1]heptane-2-carbonyl}-4-(2H-1,2,3-triazol-2-yl)benzonitrile]: the “OX1 pKi (SPA binding)” value in experiment [3] (Table 2, [3H]SB-674042 2 nM) came to 8.2. Moreover, the “OX2 pKi (SPA binding)” value in experiment [4] (Table 2, [3H]EMPA 2 nM) was 5.21.
On to `C[C@@H]1C2CC(C2)N(C(=O)c2cc(Cl)ccc2-n2nccn2)C1CNc1ncc(C(F)(F)F)cn1` (stereo partly drawn) [Example 239, cis-N-({2-[5-chloro-2-(2H-1,2,3-triazol-2-yl)benzoyl]-4-methyl-2-azabicyclo[3.1.1]heptan-3-yl}methyl)-5-(trifluoromethyl)pyrimidin-2-amine], for which the “OX1 pKi (SPA binding)” value in experiment [3] (Table 2, [3H]SB-674042 2 nM) is on record as 8.04. Further, the “OX2 pKi (SPA binding)” value in experiment [4] (Table 2, [3H]EMPA 2 nM) is 5.51.
With `C[C@@H]1C2CC(C2)N(C(=O)c2cc(Cl)ccc2-n2nccn2)C1CNc1ccc(C(F)(F)F)nn1` (stereo partly drawn) [Example 247, cis-N-({2-[5-chloro-2-(2H-1,2,3-triazol-2-yl)benzoyl]-4-methyl-2-azabicyclo[3.1.1]heptan-3-yl}methyl)-6-(trifluoromethyl)pyridazin-3-amine], the “OX1 pKi (SPA binding)” value in experiment [3] (Table 2, [3H]SB-674042 2 nM) was determined as 6.74. In addition, the “OX2 pKi (SPA binding)” value in experiment [4] (Table 2, [3H]EMPA 2 nM) came out at 4.88.
As for `C[C@@H]1C2CC(C2)N(C(=O)c2cc(F)ccc2-n2nccn2)C1CNc1ncc(C(F)(F)F)cn1` (stereo partly shown) [Example 251], the “OX1 pKi (SPA binding)” value in experiment [3] (Table 2, [3H]SB-674042 2 nM) is 7.65. Moreover, the “OX2 pKi (SPA binding)” value in experiment [4] (Table 2, [3H]EMPA 2 nM) is 4.69.
On to `C[C@@H]1C2CC(C2)N(C(=O)c2ccc(F)cc2-n2nccn2)C1CNc1cnc(C(F)(F)F)cn1` (stereo partly shown) [Example 252], for which the “OX1 pKi (SPA binding)” value in experiment [3] (Table 2, [3H]SB-674042 2 nM) came out at 7.19. The “OX2 pKi (SPA binding)” value in experiment [4] (Table 2, [3H]EMPA 2 nM) is 4.95.
Turning to `C[C@@H]1C2CC(C2)N(C(=O)c2c(F)cccc2-n2nccn2)C1CNc1cnc(C(F)(F)F)cn1` (stereo partly shown) [Example 253], the “OX1 pKi (SPA binding)” value in experiment [3] (Table 2, [3H]SB-674042 2 nM) was found to be 7.88. In experiment [4] (Table 2, [3H]EMPA 2 nM), the “OX2 pKi (SPA binding)” value amounted to 5.
In the same order, the values of `Cc1ccc(-n2nccn2)c(C(=O)N2C3CC(C3)[C@@H](C)C2CNc2cnc(C(F)(F)F)cn2)c1` (stereo partly shown) [Example 254] are 8.37 and 5.12.
For `C[C@@H]1C2CC(C2)N(C(=O)c2cc(Cl)ccc2-n2nccn2)C1CNc1cnc(C2CC2)cn1` (stereo partly shown) [Example 257], in that order: 7.58 and 5.41.
For `C[C@@H]1C2CC(C2)N(C(=O)c2cc(F)ccc2-n2nccn2)C1CNc1cnc(C2CC2)cn1` (stereo partly shown) [Example 258], the “OX1 pKi (SPA binding)” value in experiment [3] (Table 2, [3H]SB-674042 2 nM) worked out at 7.07. The “OX2 pKi (SPA binding)” value in experiment [4] (Table 2, [3H]EMPA 2 nM) amounted to 5.35.
Turning to `C[C@@H]1C2CC(C2)N(C(=O)c2cc(Cl)ccc2-n2nccn2)C1CNc1ncc(C2CC2)cn1` (stereo partly shown) [Example 259], the “OX1 pKi (SPA binding)” value in experiment [3] (Table 2, [3H]SB-674042 2 nM) stood at 7.66. Besides, the “OX2 pKi (SPA binding)” value in experiment [4] (Table 2, [3H]EMPA 2 nM) is 5.32.
In the same order, the values of `C[C@@H]1C2CC(C2)N(C(=O)c2cc(F)ccc2-n2nccn2)C1CNc1ncc(C2CC2)cn1` (stereo partly shown) [Example 260] are 7.45 and 4.89.
